US10570179B2, “Substituted urea depsipeptide analogs as activators of the CLPP endopeptidase” (priority 2016, dated 2020)
Values after ≈ are worked out from the molar mass of the structure shown. Where two headings read alike, the source gives them in different places. Numbered stars: 1 amine (or outer) side, 2 acyl side, 3 side chain; on linkers, the order of the positions; unused ones are H or OH. Bridge positions count the residues as written; N and C are the ends. Square brackets hold non-standard residues; d marks the D form. Peptide text beside a SMILES is read from it. * marks the point of attachment. Piperazine(2S-CO,4-Me) = CN1CCN[C@H](C(=O)O)C1; NH(1,3-benzodioxol-5-yl) = c1cc2c(cc1N*)OCO2; Phe(3,5-Me2) = Cc1cc(C)cc(C[C@H](N)C(=O)O)c1; Phe(3-Me) = Cc1cccc(C[C@H](N)C(=O)O)c1; NH(4-Cl-2-F-phenyl) = Fc1cc(Cl)ccc1N*; Pro(4R-Me) = C[C@H]1CN[C@H](C(=O)O)C1; NH(4-Et-phenyl) = CCc1ccc(N*)cc1; NH(4-Me-phenyl) = Cc1ccc(N*)cc1; aThr = C[C@H](O)[C@H](N)C(=O)O; Pip = O=C(O)[C@@H]1CCCCN1; CO = O=C([*:1])[*:2]

Legend:
[1] = system: S. aureus ΔClpP; experiment: Minimal inhibitory concentration, microbroth dilution; format: cell-based, Staphylococcus aureus; details: MIC; ClpP inactivated
How it was run: (§1)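 MIC is recorded by eye as the lowest drug concentration that stops bacterial growth. Compound is serially diluted twofold in broth, starting at 200 μM final, and bacteria are added at roughly 10^5 cfu/mL. Incubation runs overnight at 37 °C under aerobic conditions, per CLSI guidance.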

[2] = system: B. subtilis; experiment: as above; format: cell-based; details: Bacillus subtilis, read-out: Minimal Inhibitory Concentrations (μM) B. subtilis
How it was run: as §1

[3] = system: E. faecails; experiment: as above; format: cell-based; details: Enterococcus faecalis
How it was run: as §1

[4] = system: MRSA NRS70; experiment: as above; format: cell-based; details: Staphylococcus aureus
How it was run: as §1

[5] = system: S. aureus ATCC 29213; experiment: as above; format: cell-based; details: Staphylococcus aureus
How it was run: as §1

[6] = system: S. aureus USA 300; experiment: as above; format: cell-based; details: Staphylococcus aureus
How it was run: as §1

[7] = system: S. pyogenes; experiment: as above; format: cell-based; details: Streptococcus pyogenes, read-out: Minimal Inhibitory Concentrations (μM) S. pyogenes
How it was run: as §1

[8] = Plasma protein binding, rapid equilibrium dialysis; format: in vitro ADME, human; details: 10 μM
How it was run: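 Compound spiked at 10 μM (0.1% DMSO) into human plasma, dialysed against DPBS pH 7.4 across 8 K MWCO RED membrane for 4 h at 37 °C with shaking. Both chambers quantified by LC-MS against warfarin internal standard; % free = buffer/plasma concentration ×100, % bound = 100 − % free.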

[9] = Plasma protein binding, rapid equilibrium dialysis; format: in vitro ADME, mouse
[10] = Plasma pharmacokinetics; format: in vivo, male BALB/c mice; details: male, BALB/c, mouse, in vivo, iv; for Vd: 10 mg/kg, Route i.v., read-out: Vss
[11] = system: S. pneumoniae; experiment: Minimal inhibitory concentration, microbroth dilution; format: cell-based; details: Streptococcus pneumoniae, read-out: Minimal Inhibitory Concentrations (μM) S. pneumoniae
How it was run: as §1

[12] = Cytotoxicity assay (CellTiter-Glo cell viability); format: cell-based; details: African green monkey
Description: Cytotoxicity was determined by determining the effect of compounds on cell viability. Vero (kidney epithelial cells; ATCC CCL-81) monolayers were trypsinized and 5000 cells/well were seeded (10-15% confluency) into white-wall, flat bottom 96 well microwell plates (Corning) using enriched Dulbecco's Modified Eagle's Medium (Hyclone: DMEM/High Glucose) containing 10% Fetal Bovine Serum (ATCC-30-2020). Plates were incubated overnight at 37° C. in the presence of 5% CO2. Drug-free media was then replaced with media containing serial dilutions of test compound or DMSO carrier. After an additional 72 hours of incubation, viability was indirectly measured using the CellTiter-Glo® Luminescent Cell Viability (Promega) assay. Assay plates were read at peak emission wavelength of 560 nm using a EnVision® Multilabel Plate Reader (Perkin Elmer) or PHERAstar FS Multilabel reader (BMG, Cary, N.C.). The concentration of test compounds that inhibited growth by 50% (IC50 value) was computed using nonlinear regression based fitting of inhibition curves using log [inhibitor] vs. response-variable slope (four parameters)—symmetrical equation, in GraphPad Prism version 6 [GraphPad Software, La Jolla, Calif. USA, www.graphpad.com]. For each experiment, compounds were tested in duplicate. IC50 values presented are the range of two biologically independent experiments.

[13] = MIC, read-out: Minimal Inhibitory Concentrations (μM) E. faecails
[14] = MIC, read-out: Minimal Inhibitory Concentrations (μM) MRSA NRS70
[15] = ATCC29213, MIC, read-out: Minimal Inhibitory Concentrations (μM) S. aureus ATCC 29213
[16] = USA300, MIC, read-out: Minimal Inhibitory Concentrations (μM) S. aureus USA 300
[17] = read-out: Minimal Inhibitory Concentrations (μM) E. faecails, MIC
[18] = read-out: Minimal Inhibitory Concentrations (μM) MRSA NRS70, MIC
[19] = ATCC29213, read-out: Minimal Inhibitory Concentrations (μM) S. aureus ATCC 29213, MIC
[20] = USA300, read-out: Minimal Inhibitory Concentrations (μM) S. aureus USA 300, MIC
[21] = plasma binding, % Bound, human plasma
[22] = plasma binding, % Bound, mouse plasma

Structure (SMILES) | Minimal Inhibitory Concentrations (μM) S. aureus ΔClpP [1] [µM] | MIC ([2]; MIC) [µM] | MIC [3, 13] [µM] | MIC [4, 14] [µM] | MIC [5, 15] [µM] | MIC [6, 16] [µM] | MIC ([7]; MIC) [µM] | Human ([8]; human, 4 h, pH 7.4) [%] | Mouse ([9]; mouse, 4 h, 10 μM, pH 7.4) [%] | AUC(0-inf) [10] [ng·h/mL] | AUC(0-t) [10] [ng·h/mL] | C^0 [10] [ng/mL] | clearance [10] [mL/min/kg] | half-life [10] [h] | Vd [10] [L/kg] | MIC ([11]; MIC) [µM] | MIC [3, 17] [µM] | MIC [4, 18] [µM] | MIC [5, 19] [µM] | MIC [6, 20] [µM] | other results
Cc1cccc(C[C@H](NC(=O)Nc2ccc(Cl)cc2F)C(=O)N[C@@H]2C(=O)N3CCC[C@H]3C(=O)N3CCCC[C@H]3C(=O)N[C@@H](C)C(=O)N3C[C@H](C)C[C@H]3C(=O)O[C@H]2C)c1 [Compound 3, (S)-2-(3-(4-CHLORO-2-FLUOROPHENYL)UREIDO)-3-(M-TOLYL)-N-((2R,6S,8AS,14AS,20S,21S,23AS)-2,6,21-TRIMETHYL-5,8,14,19,23-PENTAOXOOCTADECAHYDRO-1H,5H,14H,19H-PYRIDO[2,1-I]DIPYRROLO[2,1-C:2′,1′-L][1]OXA[4,7,10,13]TETRAAZACYCLOHEXADECIN-20-YL)PROPANAMIDE] ({NH(4-Cl-2-F-phenyl)-CO}-[Phe(3-Me)][aThr]P[Pip]A[Pro(4R-Me)]; ester 2-C) | 50 | 0.078 (≈ 0.0643 µg/mL) | 0.078 (≈ 0.0643 µg/mL) | 0.078 (≈ 0.0643 µg/mL) | 0.156 (≈ 0.129 µg/mL) | 0.156 (≈ 0.129 µg/mL) | 0.313 (≈ 0.258 µg/mL) | 99.0 ± 0.1 | 99.3 ± 0.1 | 12600 | 12500 | 13482.56 | 13.3 | 3.4 | 2.08 |  |  |  |  |  | 
CCc1ccc(NC(=O)N[C@@H](Cc2cccc(C)c2)C(=O)N[C@H]2COC(=O)[C@@H]3C[C@@H](C)CN3C(=O)[C@H](C)NC(=O)[C@@H]3CN(C)CCN3C(=O)[C@@H]3CCCN3C2=O)cc1 [Compound 16, (S)-2-(3-(4-ETHYLPHENYL)UREIDO)-3-(M-TOLYL)-N-((6AS,12S,15AS,17R,21S,23AS)-2,17,21-TRIMETHYL-6,11,15,20,23-PENTAOXOOCTADECAHYDRO-2H,6H,11H,15H-PYRAZINO[2,1-I]DIPYRROLO[2,1-C:2′,1′-L][1]OXA[4,7,10,13]TETRAAZACYCLOHEXADECIN-12-YL)PROPANAMIDE] ({NH(4-Et-phenyl)-CO}-[Phe(3-Me)]SP[Piperazine(2S-CO,4-Me)]A[Pro(4R-Me)]; ester 2-C) | >20 |  | 0.156 (≈ 0.125 µg/mL) | 0.313 (≈ 0.251 µg/mL) | 1.25 (≈ 1 µg/mL) | 0.625 (≈ 0.501 µg/mL) | 0.156 (≈ 0.125 µg/mL) | 98.5 ± 0.3 | 97.1 ± 0.1 | 3770 | 3760 | 18634.35 | 44.3 | 0.25 | 0.57 | 0.078 (≈ 0.0625 µg/mL) |  |  |  |  | 
Cc1ccc(NC(=O)N[C@@H](Cc2cc(C)cc(C)c2)C(=O)N[C@@H]2C(=O)N3CCC[C@H]3C(=O)N3CCCC[C@H]3C(=O)N[C@@H](C)C(=O)N3C[C@H](C)C[C@H]3C(=O)O[C@H]2C)cc1 [Compound 2, (S)-3-(3,5-DIMETHYLPHENYL)-2-(3-(P-TOLYL)UREIDO)-N-((2R,6S,8AS,14AS,20S,21S,23AS)-2,6,21-TRIMETHYL-5,8,14,19,23-PENTAOXOOCTADECAHYDRO-1H,5H,14H,19H-PYRIDO[2,1-I]DIPYRROLO[2,1-C:2′,1′-L][1]OXA[4,7,10,13]TETRAAZACYCLOHEXADECIN-20-YL)PROPANAMIDE] ({NH(4-Me-phenyl)-CO}-[Phe(3,5-Me2)][aThr]P[Pip]A[Pro(4R-Me)]; ester 2-C) | 200 |  |  |  |  |  |  |  |  |  |  |  |  |  |  |  | 2.5 (≈ 2 µg/mL) | 0.313 (≈ 0.25 µg/mL) | 1.25 (≈ 1 µg/mL) | 0.781 (≈ 0.625 µg/mL) | IC50 at 72 h ([12]; Vero cells, 72 hours, read-out: Cytotoxicity IC50): > 100 µM; MIC [2]: 0.625 µM (≈ 0.5 µg/mL); MIC [7]: > 20 µM; Human [8, 21]: 99.3%; Mouse [9, 22]: 99.2%
Cc1ccc(NC(=O)N[C@@H](Cc2cccc(C)c2)C(=O)N[C@H]2COC(=O)[C@@H]3C[C@@H](C)CN3C(=O)[C@H](C)NC(=O)[C@@H]3CN(C)CCN3C(=O)[C@@H]3CCCN3C2=O)cc1 [Compound 15, (S)-3-(M-TOLYL)-2-(3-(P-TOLYL)UREIDO)-N-((6AS,12S,15AS,17R,21S,23AS)-2,17,21-TRIMETHYL-6,11,15,20,23-PENTAOXOOCTADECAHYDRO-2H,6H,11H,15H-PYRAZINO[2,1-I]DIPYRROLO[2,1-C:2′,1′-L][1]OXA[4,7,10,13]TETRAAZACYCLOHEXADECIN-12-YL)PROPANAMIDE] ({NH(4-Me-phenyl)-CO}-[Phe(3-Me)]SP[Piperazine(2S-CO,4-Me)]A[Pro(4R-Me)]; ester 2-C) | >20 |  |  |  |  |  |  |  |  |  |  |  |  |  |  |  | 1.25 (≈ 0.984 µg/mL) | 2.5 (≈ 1.97 µg/mL) | 2.5 (≈ 1.97 µg/mL) | 5 (≈ 3.93 µg/mL) | MIC [11]: 0.313 µM (≈ 0.246 µg/mL); MIC [7]: 0.313 µM (≈ 0.246 µg/mL); Human [8, 21]: 95.2 ± 1.5%; Mouse [9, 22]: 77.0 ± 6.1%
Cc1cccc(C[C@H](NC(=O)Nc2ccc3c(c2)OCO3)C(=O)N[C@H]2COC(=O)[C@@H]3C[C@@H](C)CN3C(=O)[C@H](C)NC(=O)[C@@H]3CN(C)CCN3C(=O)[C@@H]3CCCN3C2=O)c1 [Compound 17, (S)-2-(3-(BENZO[D][1,3]DIOXOL-5-YL)UREIDO)-3-(M-TOLYL)-N-((6AS,12S,15AS,17R,21S,23AS)-2,17,21-TRIMETHYL-6,11,15,20,23-PENTAOXOOCTADECAHYDRO-2H,6H,11H,15H-PYRAZINO[2,1-I]DIPYRROLO[2,1-C:2′,1′-L][1]OXA[4,7,10,13]TETRAAZACYCLOHEXADECIN-12-YL)PROPANAMIDE] ({NH(1,3-benzodioxol-5-yl)-CO}-[Phe(3-Me)]SP[Piperazine(2S-CO,4-Me)]A[Pro(4R-Me)]; ester 2-C) | >20 |  | 1.25 (≈ 1.02 µg/mL) | 5 (≈ 4.08 µg/mL) | 20 (≈ 16.3 µg/mL) | 10 (≈ 8.17 µg/mL) | 1.25 (≈ 1.02 µg/mL) | 95.4 ± 1.1 | 88.4 ± 1.6 |  |  |  |  |  |  | 0.313 (≈ 0.256 µg/mL) |  |  |  |  | 
Cc1cc(C)cc(C[C@H](NC(=O)Nc2ccc(Cl)cc2F)C(=O)N[C@@H]2C(=O)N3CCC[C@H]3C(=O)N3CCCC[C@H]3C(=O)N[C@@H](C)C(=O)N3C[C@H](C)C[C@H]3C(=O)O[C@H]2C)c1 [Compound 4, (S)-2-(3-(4-CHLORO-2-FLUOROPHENYL)UREIDO)-3-(3,5-DIMETHYLPHENYL)-N-((2R,6S,8AS,14AS,20S,21S,23AS)-2,6,21-TRIMETHYL-5,8,14,19,23-PENTAOXOOCTADECAHYDRO-1H,5H,14H,19H-PYRIDO[2,1-I]DIPYRROLO[2,1-C:2′,1′-L][1]OXA[4,7,10,13]TETRAAZACYCLOHEXADECIN-20-YL)PROPANAMIDE] ({NH(4-Cl-2-F-phenyl)-CO}-[Phe(3,5-Me2)][aThr]P[Pip]A[Pro(4R-Me)]; ester 2-C) | 25 | 1.25 (≈ 1.05 µg/mL) | 1.25 (≈ 1.05 µg/mL) | 0.156 (≈ 0.131 µg/mL) | 0.625 (≈ 0.524 µg/mL) | 0.625 (≈ 0.524 µg/mL) | 1.25 (≈ 1.05 µg/mL) | 99.8 ± 0.2 | 99.8 ± 0.0 |  |  |  |  |  |  |  |  |  |  |  | IC50 at 72 h [12]: 11 ± 1.9 µM
